The subject of the test is MHC II molecules on dendritic cells (CD11c+ cells). As to the kind of experiment: In vivo MHC class II loading assay (DR3tg mice). As to conditions: 100 µg peptide s.c., spleen 2 h post injection, 72 h co-culture, vs PBS-injected control. Details: species or system HLA-DR3-transgenic mice. How it is done: FIG. 2: Peptide 17JK is correctly loaded on MHC class II in vivo. Response of peptide-specific CD4+ T cells towards peptide loaded in vivo on dendritic cells is shown. HLA-DR3-transgenic mice were injected subcutaneously with 100 µg of 17JK peptide. 2 h post injection, spleens were dissected and CD11c+ cells (dendritic cells) were isolated. These CD11c+ cells were co-cultured with peptide-specific CD4+ cells for 72 h at 37° C. IFNy was measured in the supernatant of these cultures to evaluate the response to peptide by the CD4+ T cells. (*** p<0.001 Mann-Whitney U-test)
FIG. 3: Peptide 15N3K is correctly loaded on MHC class II in vivo. […] IFNy was measured in the supernatant of these cultures to evaluate the response to peptide by the CD4+ T cells. […]
When 100 µg of peptide 9K1K was injected in DR2tg mice or when peptide 17JK or 15N3K was injected in DR3tg mice, these peptides could be detected on dendritic cells (CD11c+ cells) in the spleens of these mice 2 h post injection. Activation (IFNY production) of peptide-specific CD4+ T cells by the isolated CD11 c+ cells was used as a read-out. […]
DR3tg or DR2tg mice were injected with 100 µg of peptide in 100 µl PBS subcutaneously (s.c.) in the flank. […] After 72 hours, supernatant of these co-cultures was collected and CD4+ T cell activation was analysed by IFNy ELISA (R&D Systems, Abingdon, UK). […]

No end group written: not given here.

Take KKKVIFKKISRDKSVTIYLGKKK-NH2 [15N3K]: the “CD4+ T cell activation (IFNy) by CD11c+ cells isolated from spleen of injected mice” value was “significant CD4+ T cell activation”.

KKKLTFRRDLYFSRVQVYKKK-NH2 [17JK]: the “CD4+ T cell activation (IFNy) by CD11c+ cells isolated from spleen of injected mice” value is “significant CD4+ T cell activation”.

The values above are taken from US20230203126A1, “A COMPOSITION COMPRISING S-ARRESTIN PEPTIDES” (WORG PHARMACEUTICALS (HANGZHOU) CO., LTD., priority 2019, published 2023).
